Experimental data: US8354438B2, “Neurological functions” (priority 2001, dated 2013)
Counter-ions that a name gives are not always drawn. Like-named read-outs stand apart in the source and are kept apart here. Marks after values point to notes of the source that are not given here.

Tests used:
[1] = tested on: children with Autistic spectrum disorders; details: for Rec. Speech Age (N = 31) / CARS (N = 35) / Exp. Speech Age (N = 31): Group I combined with Group II
Source text: American Psychiatric Association. Diagnostic and Statistical Manual of Mental Disorders (4th ed.). Washington, D.C.: Author 1994. Diagnosis was confirmed by a pediatric neurologist after completing a comprehensive neurological evaluation and also by a clinical interview with a clinical psychologist. No child was excluded based upon intelligence estimate or developmental language level.
We included patients with abnormal electroencephalograns (EEGs) as they represent an important section of the ASD population. Hollander, E. et al., J. Clin. Psychiatry 2001; 62(7): 530-534. […] Hollander, E. et al., J. Clin. Psychiatry 2001; 62(7): 530-534 DiMartino, A. and Tuchman, R. F., Pediatric Neurology 2001; 25(3): 199-207. Other patients were maintained on corticosteroids (N=6, pulse-dose prednisone or prednisolone), CNS stimulants (N=8, dextroamphetamine/amphetamine or methylphenidate), antidepressants (N=7, fluoxetine hydrochloride or paroxetine), antipsychotics (N=4, risperidone), or alpha adrenergic blocking agents (N=9, clonidine).
The standard donepezil dosage recommendation of 5 milligrams was halved in accordance with pediatric protocols to arrive at a quantity of 2.5 milligrams. The duration of the double-blind, parallel trial was six weeks, at which time all subjects entered open-label treatment for an additional six weeks.
The dose was lowered to 1.25 milligrams or discontinued throughout the 12-week trial if adverse events persisted for more than one week (e.g., irritability, hyperactivity, or gastrointestinal problems). The maximum daily dose was 2.5 milligrams. The medication was adjusted by halving the dose (1.25 mg) if parents noted their children to have tolerable yet persistent gastrointestinal distress, hyperactivity, or irritability. Medication was discontinued if GI intolerability or changes in behavior were considered to be an adverse event (i.e., persisted for more than […]). Medication was administered at dinnertime, unless restlessness occurred in sleep, in which case administration was changed to an earlier time in the day. Dinnertime was selected as the preferred administration time in an attempt to alleviate gastrointestinal side effects observed in the dementia population.
All staff, including nurses, were blinded to the status of the patients on either placebo or drug during the six-week double-blind phase. Patient progress and side effects were monitored at the scheduled appointments by study coordinators, nursing staff, and the primary investigator. Gardner's Receptive One-Word Picture Vocabulary Test (ROWPVT), the EOWPVT-R, and the Childhood Autism Rating Scale (CARS) were administered at baseline, 6-week, and 12-week follow-up visits by the same study coordinator (R.T.):
Outcome Measures: The Receptive One-Word Picture Vocabulary Test, Gardner, M. F. Receptive One-Word Picture Vocabulary Test: ROWPVT. Novato, Calif.: Academic Therapy Publications 1985, examines a child's understanding of language and is an effective tool for assessing receptive language in children with expressive language difficulties. The test was developed for children ages two through twelve. Participants are shown a group of four pictures and asked to point to the picture corresponding to the word presented aurally by the clinician. The test is completed when the child makes six errors of eight consecutive items.
The Expressive One-Word Picture Vocabulary Test—Revised can be used as a tool to determine auditory-visual-verbal association ability as well as expressive language functioning in young children ages two through 12. Gardner, M. F. Expressive One-Word Picture Vocabulary Test (Revised): EOWPVT-R. Novato, Calif.: Academic Therapy Publications 1990. The test was developed to address general concrete concepts, grouping, abstract concepts, and descriptive concepts.

children with ASD = experiment: Subsequent long-term observation of children with ASD on DH; format: in vivo, human
Source text: We have subsequently followed over 100 children with ASD on DH for up to 20 months since the conclusion of this study. […] Further long-term use of cholinesterase inhibitors may lead to greater understanding of the possible ability to sustain new neuronal connections in a brain that has more neuronal plasticity than the elderly with Alzheimer's Disease.

Helicobacter pylori = details: Matsukura and Tanaka 2000; cited from earlier work
carnosinase = details: compared with the parent compound carnosine; Boldyrev 2000; cited from earlier work
[2] = Group I (DH), Baseline to Week 6, placebo group 30%
[3] = Group I (DH, DH) N = 23, BASELINE
[4] = Group I (DH, DH), DH 2.5 milligrams, 6-WEEK, p < .05, BL compared to 6 week
[5] = Group I (DH, DH), DH 2.5 milligrams, 12-WEEK, p < .05, BL compared to 6 and 12 week

COc1cc2c(cc1OC)C(=O)C(CC1CCN(Cc3ccccc3)CC1)C2 (stereo not shown) [DH, donepezil hydrochloride]
children with CARS change scores ([Baseline]-[6 Week score]) indicating improvement of 3.0 or greater [1, 2]: 50% | children with clinically meaningful worsening of CARS scores [1, 2]: 12.5% | CARS [1, 3]: 34.7 (SD = 7.7) | Exp. Speech Age (mos.) [1, 3]: 35.7 (SD = 27.8) mos. | Rec. Speech Age (mos.) [1, 3]: 38.8 (SD = 23.5) mos. | CARS ([1]; Group I (DH, DH), DH 2.5 milligrams, 6-WEEK): 33.3 (SD = 8.0) | Exp. Speech Age (mos.) [1, 4]: 43.3 (SD = 27.2)* mos. | Rec. Speech Age (mos.) [1, 4]: 50.3 (SD = 27.0)* mos. | Exp. Speech Age (mos.) [1, 5]: 42.5 (SD = 28.5)*** mos. | Rec. Speech Age (mos.) [1, 5]: 49.7 (SD = 34.2)*** mos. | CARS ([1]; Group I (DH, DH), DH 2.5 milligrams, 12-WEEK, p < .05, BL compared to 12 week): 30.8 (SD = 7.9)** | Rec. Speech Age (N = 31) ([1]; 6-weeks DH, p value .002): 53.2 (SD = 25.8) | CARS (N = 35) ([1]; 6-weeks DH, p value .004): 32.2 (SD = 8.5) | Exp. Speech Age (N = 31) ([1]; 6-weeks DH, p value .044): 43.6 (SD = 31.8) | CARS (N = 35) ([1]; BASELINE before six weeks DH): 34.7 (SD = 7.4) | Exp. Speech Age (N = 31) ([1]; BASELINE before six weeks DH): 39.3 (SD = 27.9) | Rec. Speech Age (N = 31) ([1]; BASELINE before six weeks DH): 43.7 (SD = 22.2) | Exp. Speech Age (mos.) ([1]; Group II (Placebo, DH): six weeks placebo then six weeks DH, 12-WEEK, end of placebo 33.8 (SD = 32.9), reduced N (=16), p < .05): 40.9 (SD = 38.8)***^@ mos. | Rec. Speech Age (mos.) ([1]; Group II (Placebo, DH): six weeks placebo then six weeks DH, 12-WEEK, end of placebo 39.83 (SD = 27), reduced N (=16), p < .05, 6 compared to 12 week): 87.37 (SD = 14.2)**^@ mos. | CARS ([1]; Group II (Placebo, DH): six weeks placebo then six weeks DH, 12-WEEK, end of placebo (6-WEEK) 32.9 (SD = 7.7), p < .05): 30.9 (SD = 9.1)* | patients dropped from the study after the first 6 weeks who had been on DH ([1]; of nine patients dropped): 6/9 | patients discontinued due to diarrhea or stomach cramping ([1]; of the 6 dropped patients on DH): 2 patients | long-term deficits or down-regulation effect (children with ASD; over 100 children with ASD on DH for up to 20 months): No obvious long-term deficits or suspected down-regulation effect | regressions or lost skills after stopping the medication (children with ASD; patients stopped the medication after 6 additional months): no patients had major regressions or lost skills

NCCC(=O)[N-][C@@H](Cc1c[nH]cn1)C(=O)[O-].[Zn+2] [L-CAZ]
Helicobacter pylori inhibition (Helicobacter pylori): inhibited

CC(=O)NCCC(=O)N[C@@H](Cc1cnc[nH]1)C(=O)O [N-acetylcarnosine]
rate of hydrolysis (carnosinase): negligible

NCCC(=O)NCCc1c[nH]cn1 [carcinine]
rate of hydrolysis (carnosinase): negligible

Cn1cncc1C[C@H](NC(=O)CCN)C(=O)O [ophidine, β-Alanlyl-3-methyl-L-histidine]
rate of hydrolysis (carnosinase): much more slowly
